According to US20110201564A1, “SUBSTITUTED 7-SULFANYLMETHYL, 7-SULFINYLMETHYL AND 7-SULFONYLMETHYL INDOLES AND USE THEREOF” (BAYER SCHERING PHARMA AKTIENGESELLSCHAFT, priority 2008, published 2011):

Assays:
[1] = biological target: T1, human mineralocorticoid receptor (MR) (Homo sapiens, UniProt P08235); assay: Cellular in vitro assay, GAL4-MR chimera luciferase reporter in CHO K1 cells (inhibitory MR activity); type: cell-based; conditions: antagonism vs aldosterone; CHO K1 GAL4-MR LBD luciferase reporter
T1 construct: expressed in transfected cells; host or cells: CHO K1
T1 sequence (P08235 734-984 limits assumed): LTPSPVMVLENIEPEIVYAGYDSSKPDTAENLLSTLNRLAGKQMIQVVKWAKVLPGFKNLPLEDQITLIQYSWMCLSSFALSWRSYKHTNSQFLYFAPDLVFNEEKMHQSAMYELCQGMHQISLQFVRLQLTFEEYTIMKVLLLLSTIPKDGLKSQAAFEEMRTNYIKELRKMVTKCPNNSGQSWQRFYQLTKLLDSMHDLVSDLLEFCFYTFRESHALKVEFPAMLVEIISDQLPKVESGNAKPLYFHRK
Procedure, shortened: (§1)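 CHO K1 cells stably expressing GAL4 DNA-binding domain fused to human MR, PR or AR ligand-binding domains plus GAL4-driven firefly luciferase; compounds added 10–30 min before agonist (aldosterone, progesterone or dihydrotestosterone), luciferase read after 5–6 h; IC50 from sigmoidal concentration–response curves.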

CYP3A4 = biological target: T2, CYP3A4 (Homo sapiens, UniProt P08684); assay: Assay to assess irreversible CYP3A4 inhibition (mechanism-based inhibition) in human liver microsomes; type: in vitro ADME; conditions: CYP3A4 activity as 6β-hydroxytestosterone formation, 2-20 μM
T2 construct: using human liver microsomes (pool from various individuals); from tissue; host or cells: human liver microsomes (pool from various individuals)
T2 sequence (P08684 whole entry): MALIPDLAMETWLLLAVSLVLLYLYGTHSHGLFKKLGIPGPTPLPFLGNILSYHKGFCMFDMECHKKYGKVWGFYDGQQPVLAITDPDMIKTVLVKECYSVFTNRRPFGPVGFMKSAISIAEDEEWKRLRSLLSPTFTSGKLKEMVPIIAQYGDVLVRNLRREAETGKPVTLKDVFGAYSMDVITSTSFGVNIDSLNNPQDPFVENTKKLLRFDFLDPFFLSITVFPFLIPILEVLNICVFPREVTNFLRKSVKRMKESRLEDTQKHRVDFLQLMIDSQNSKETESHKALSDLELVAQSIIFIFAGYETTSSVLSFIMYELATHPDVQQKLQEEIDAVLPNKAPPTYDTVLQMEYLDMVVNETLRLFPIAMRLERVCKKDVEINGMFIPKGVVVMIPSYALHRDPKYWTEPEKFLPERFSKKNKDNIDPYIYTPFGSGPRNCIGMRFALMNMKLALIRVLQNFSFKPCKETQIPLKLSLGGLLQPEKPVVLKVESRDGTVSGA
From the text: 8. Assay to Assess Irreversible CYP3A4 Inhibition
Cytochrom P450 enzyme inhibition, especially irreversible enzyme inhibition, also referred to as mechanism-based inhibition (MBI), is an unwanted metabolic property of a substance which may, on concurrent administration of other medicaments, lead to considerable drug interactions. Criteria for the presence of an irreversible inhibition are a time-, concentration- and cofactor- (nicotinamide adenine dinucleotide phosphate, NADPH) dependent inhibition. To this end, the compounds of the invention are incubated in vitro with human liver microsomes, the influence on the CYP3A4 activity and the metabolic degradation of the novel active ingredient is determined, and the prototypical parameters kinact, Ki and the partition ratio r are ascertained therefrom.
The compounds of the invention are incubated with concentrations of 2-20 μM. To this end, stock solutions of the active ingredients with a concentration of 0.2-2 mM are prepared in acetonitrile and then pipetted with a 1:100 dilution into the incubation mixture. The liver microsomes are incubated in 50 mM potassium phosphate buffer (pH 7.4) with and without NADPH-generating system consisting of 1 mM NADP^+, 5 mM glucose 6-phosphate and 1 unit of glucose 6-phosphate dehydrogenase, at 37° C. After defined preincubation times of 0-50 min, aliquots are removed from these mixtures, diluted 1:25 in a new incubation, and incubated in the presence of testosterone and new NADPH-generating system again for 20 min. These incubation mixtures are stopped with acetonitrile (final concentration about 30% v/v), and the protein is removed by centrifugation at about 15 000×g. The samples stopped in this way are either analyzed directly or stored at −20° C. until analyzed.
The analysis takes place by high performance liquid chromatography with mass spectrometry detection (LC-MS). The formation of 6β-hydroxytestosterone as measure of CYP3A4 activity, and the test substance still remaining is quantified. The parameters kinact, Ki and the partition ratio r are determined therefrom so as to assess the novel active ingredients in relation to MBI.

[2] = biological target: T3, progesterone receptor (PR) (Homo sapiens, UniProt P06401); assay: Cellular in vitro assay, GAL4-PR chimera luciferase reporter in CHO K1 cells (selectivity); type: cell-based; conditions: antagonism vs progesterone; CHO K1 GAL4-PR LBD luciferase reporter
T3 construct: of the progesterone receptor (PR, amino acids 680-933); expressed in transfected cells; host or cells: CHO K1
T3 sequence (P06401 680-933): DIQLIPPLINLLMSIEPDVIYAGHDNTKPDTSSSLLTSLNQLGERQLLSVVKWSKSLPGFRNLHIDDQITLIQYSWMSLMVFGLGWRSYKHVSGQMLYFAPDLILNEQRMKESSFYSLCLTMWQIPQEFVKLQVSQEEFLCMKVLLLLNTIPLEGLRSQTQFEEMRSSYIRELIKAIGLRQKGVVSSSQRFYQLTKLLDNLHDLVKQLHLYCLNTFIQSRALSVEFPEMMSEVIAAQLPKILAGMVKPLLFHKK
Procedure, shortened: as §1

androgen receptor (AR) = biological target: T4, androgen receptor (AR) (Homo sapiens, UniProt P10275); assay: Cellular in vitro assay, GAL4-AR chimera luciferase reporter in CHO K1 cells (selectivity); type: cell-based; conditions: antagonism vs dihydrotestosterone; CHO K1 GAL4-AR LBD luciferase reporter
T4 construct: of the androgen receptor (AR, amino acids 667-919); expressed in transfected cells; host or cells: CHO K1
T4 sequence (P10275 668-920): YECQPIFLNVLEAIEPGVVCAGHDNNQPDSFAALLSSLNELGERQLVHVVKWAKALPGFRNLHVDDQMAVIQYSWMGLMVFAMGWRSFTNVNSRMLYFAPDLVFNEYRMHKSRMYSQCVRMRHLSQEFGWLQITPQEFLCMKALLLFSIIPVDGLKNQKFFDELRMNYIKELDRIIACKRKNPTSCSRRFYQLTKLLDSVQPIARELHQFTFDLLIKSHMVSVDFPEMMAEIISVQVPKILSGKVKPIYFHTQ
Procedure, shortened: as §1

Compound | IC50 [1] [µM] | Partition ratio r (CYP3A4) | IC50 [2] [µM] | IC50 (androgen receptor (AR)) [µM]
CS(=O)(=O)Cc1cccc2c(C(CCC#N)c3ccc4c(c3)OC(F)(F)O4)c[nH]c12 (stereo not shown) [Example 169, 4-(2,2-Difluoro-1,3-benzodioxol-5-yl)-4-{7-[(methylsulfonyl)methyl]-1H-indol-3-yl}butanonitrile] | 0.11 | >500 | 6.57 | 2.28
CS(=O)(=O)Cc1cccc2c(C(CCC#N)c3ccc4sccc4c3)c[nH]c12 (stereo not shown) [Example 73, 4-(1-Benzothiophen-5-yl)-4-{7-[(methylsulfonyl)methyl]-1H-indol-3-yl}butanonitrile] | 0.09 | >500 | 6.44 | 5.22
CS(=O)(=O)Cc1cccc2c(C(c3ccc(F)cc3)c3ccc(C(F)(F)F)cc3)c[nH]c12 (stereo not shown) [Example 113, 3-{(4-Fluorophenyl) [4-(trifluoromethyl)phenyl]methyl}-7-[(methylsulfonyl)methyl]-1H-indole] | 0.13 | >500 | 7.24 | 3.22
CS(=O)(=O)Cc1cccc2c(C3(C4CC4)CCc4cc(F)ccc43)c[nH]c12 (stereo not shown) [Example 107, 3-(1-Cyclopropyl-5-fluoro-2,3-dihydro-1H-inden-1-yl)-7-[(methylsulfonyl)methyl]-1H-indole] | 0.02 | >400 | 4.83 | 3.33
CS(=O)(=O)Cc1cccc2c(C(CCC#N)c3ccc(Cl)cc3F)c[nH]c12 (single isomer, unassigned) [Example 59-1, 4-(4-Chloro-2-fluorophenyl)-4-{7-[(methylsulfonyl)methyl]-1H-indol-3-yl}butanonitrile] | 0.08 | 220 | 10 | 7.76
CCC(CCO)(c1ccc(Cl)cc1)c1c[nH]c2c(CS(C)(=O)=O)cccc12 (stereo not shown) [Example 147, 3-(4-Chlorophenyl)-3-{7-[(methylsulfonyl)methyl]-1H-indol-3-yl}pentan-1-ol] | 0.03 | 90 | 1.42 | 3.02
CCC(CCC#N)(c1ccc(Cl)cc1)c1c[nH]c2c(CS(C)(=O)=O)cccc12 (stereo not shown) [Example 172, 4-(4-Chlorophenyl)-4-{7-[(methylsulfonyl)methyl]-1H-indol-3-yl}hexanonitrile] | 0.02 | 120 | 16 | 5.28

The next lines start with the values.

IC50 [1] [µM] | Partition ratio r (CYP3A4) | IC50 [2] [µM] | IC50 (androgen receptor (AR)) [µM] | Compound
0.006 | >200 | 10 | 0.94 | CS(=O)(=O)Cc1cc(F)cc2c(C(c3ccc(C(F)(F)F)cc3F)C3CC3C#N)c[nH]c12 (single isomer, unassigned) [Example 271-1-1, 2-({5-Fluoro-7-[(methylsulfonyl)methyl]-1H-indol-3-yl}[2-fluoro-4-(trifluoro-methyl)phenyl]methyl)cyclopropanecarbonitrile]
0.006 | >200 | 10 | 0.98 | CS(=O)(=O)Cc1cc(F)cc2c(C(c3ccc(Cl)cc3F)C3CC3C#N)c[nH]c12 (single isomer, unassigned) [Example 273-1-2, 2-[(4-Chloro-2-fluorophenyl){5-fluoro-7-[(methylsulfonyl)methyl]-1H-indol-3-yl}methyl]cyclopropanecarbonitrile]
0.033 | >200 | 12.3 | 5.64 | CS(=O)(=O)Cc1cccc2c(C(c3ccc(Cl)cc3)C3CC3(F)F)c[nH]c12 (single isomer, unassigned) [Example 261-1, 3-[(4-Chlorophenyl)(2,2-difluorocyclopropyl)methyl]-7-[(methylsulfonyl)methyl]-1H-indole]
